According to PMC5244392, “Interspecies cathelicidin comparison reveals divergence in antimicrobial activity, TLR modulation, chemokine induction and regulation of phagocytosis” (Scientific Reports, 2017):

Columns and labels:
RAW264.7 cells = assay: Cytotoxicity (WST-1 mitochondrial activity, PI staining); format: cell-based, murine; conditions: 24 h, peptide 0.08-20 μM; WST-1 and PI staining
Experimental: WST-1 reagent was obtained from Roche (Basel, Switzerland). RAW264.7 cells were incubated with cathelicidins for 24 h, after which the supernatant was removed and replaced with 10% WST-1 reagent in culture medium. After 20 minutes, absorbance was measured at 450 nm with a FLUOstar Omega microplate reader (BMG Labtech GmbH, Ortenberg, Germany) and was corrected for absorbance at 630 nm. Non-treated control cells were defined as 100% mitochondrial activity.
In addition, cells were detached after peptide exposure and stained with propidium iodide (PI) (BD bioscience, San Jose, CA, USA). Percentages of PI positive (i.e. dead) cells were determined with flow cytometry (BD FACSCanto II flow cytometer (BD Biosciences)) and analyzed with FlowJo software (Ashland, OR, USA). […]
Supplementary Figure 3: Cytotoxicity of cathelicidins on RAW264.7 cells
(A) RAW264.7 cells were incubated for 24 hours with diﬀerent cathelicidins (0.08 µM, 0.31 µM, 1.25 µM, 5 µM, and 20 µM), after which they were incubated with WST-1 reagent for 20 minutes to measure the mitochondrial activity. No peptide control was set to 100% mitochondrial activity. Dotted line represents 80% mitochondrial activity. Results are presented as average +/- SEM (N = 4).
(B) RAW264.7 cells were incubated with diﬀerent cathelicidins (0.31 µM, 1.25 µM, 5 µM, and 20 µM). Cells were stained for PI to detect dead cells. […]

E. coli O78 = assay: Sytox green membrane leakage assay; format: cell-based, Escherichia coli; conditions: 30 min at 37 °C, MHB or DMEM + FCS, peptide 0.31-20 μM; N = 3
Experimental: Peptide dilutions and bacteria suspensions were prepared as described above for testing the antimicrobial activity in the Bioscreen C analyzer. Peptide dilutions and bacteria were mixed 1:1 and incubated for 30 minutes at 37 °C. Next, bacteria were washed once with PBS and transferred to black 96-wells assay plates (Corning, OH, USA). Bacteria were incubated with […] sytox green (Life technologies) (λex 504 nm and λem 523 nm) for 5 minutes after which fluorescence was measured using a FLUOstar Omega microplate reader (BMG Labtech GmbH, Ortenberg, Germany).
The capacity of peptides to induce membrane leakage was tested using the permeability marker sytox green. […] For MRSA, fluorescence levels were generally very low even at >Cmax levels, hampering a good comparison between growth delay and permeabilization for this strain.
Supplementary Figure 2: Bacterial membrane leakage
E. Coli O78 and MRSA (1x10^6 CFU/ml) were grown in MHB or DMEM+FCS for 30 minutes at 37°C in the presence of diﬀerent concentrations of cathelicidins (0.31 µM, 0.63 µM, 1.25 µM, 2.5 µM, 5 µM, 10 µM, and 20 µM), after which the cells were stained with sytox green to measure membrane leakage. E. Coli in MHB, dark green line; E. Coli in DMEM, light green line; MRSA in MHB, dark blue line; MRSA in DMEM, light blue line. Results are presented as average +/- SEM (N = 3).
Peptide concentration (µ M) […]

S. aureus = assay: MBC by plating wells without visible growth, S. aureus; format: cell-based, Staphylococcus aureus; conditions: S. aureus in DMEM; results not shown
Experimental: In order to compare our Cmax with MBC values, wells without visible bacterial growth were plated out on TSA plates and incubated o/n at 37 °C to determine the presence of viable bacteria.
The antimicrobial capacities were tested under the same conditions and expressed as growth delay instead of the more classical MIC/MBC determination using broth dilution assays. […] The fact that DMEM medium makes S. aureus susceptible to PR-39 is surprising since this peptide is thought to require active uptake by the SbmA transporter, only present in Gram – bacteria. The results obtained in this work, might indicate that the peptide possibly switches to a different mechanism of action with initially a bacteriostatic effect, but more thorough studies are required to elucidate the details of these initial observations.

Ac-GRFRRLRKKTRKRLKKIGKVLKWIPPIVGSIPLGCG [PMAP-36, porcine α-helical cathelicidin, N-acetylated, 36 residues, charge +13]
Cytotoxicity to RAW264.7 cells, in words (RAW264.7 cells): some cytotoxicity, but only at the highest concentration

RRRPRPPYLPRPRPPPFFPPRLPPRIPPGFPPRFPPRFP [PR-39, porcine proline-rich cathelicidin forming a polyproline helix, 39 residues, charge +10]
Membrane permeability (sytox green fluorescence), in words (E. coli O78): minimal permeability
Fold higher MBC than Cmax (S. aureus): 16 fold
